We go through 7 compounds from ChEMBL document CHEMBL4419173, “Small-molecule inhibitors targeting g-protein-coupled rho guanine nucleotide exchange factors” (2014).

Assay [1] addresses Rho GEF 12/Transforming protein RhoA (Homo sapiens) (UniProt P61586+Q9NZN5). The assay can be described thus: Inhibition of His6-tagged human LARG PH-DH domain expressed in mouse NIH/3T3 cells assessed as reduction in human full length GST-tagged RhoA (1 to 193 residues) interaction with LARG RhoGEF at 100 uM incubated for 1 hr by Western blot analysis relative to Y16. Format: cell-based. A general note: A western blot detects proteins with antibodies after separation by electrophoresis.

Assay [2] deals with T1, Rho guanine nucleotide exchange factor 12 (Homo sapiens, UniProt Q9NZN5). The assay can be described thus: Inhibition of human LARG (765 to 1138 residues) RhoGEF-catalyzed guanine nucleotide-exchange reaction of human full length RhoA (1 to 193 residues) by measuring inhibition of TR-GTP association to RhoA by BODIPY-Texas Red(TR)-GTP nucleotide based assay.
Assay [3] concerns the target T1, Rho guanine nucleotide exchange factor 12. The assay can be described thus: Inhibition of human LARG (765 to 1138 residues) RhoGEF-catalyzed guanine nucleotide-exchange reaction of human full length RhoA (1 to 193 residues) by measuring inhibition of FL-GDP dissociation from RhoA by BODIPY-fluorescein(FL)-GDP nucleotide based assay.
The test system of assay [4] is MCF7. As to the kind of experiment: Inhibition of RhoGEF in human MCF7 cells derived mammospheres assessed as inhibition of RhoA-mediated phospho-MLC formation at 10 uM incubated for 24 hrs by densitometry. Format: cell-based.
The test system of assay [5] is MCF7. The assay can be described thus: Inhibition of RhoGEF in human MCF7 cells derived mammospheres assessed as inhibition of 10% calf serum-induced RhoA-GTP formation at 10 uM incubated for 24 hrs by densitometry relative to control. Format: cell-based.
Assay [6] deals with MCF7. The assay can be described thus: Inhibition of RhoGEF in human MCF7 cells derived mammospheres assessed as inhibition of RhoA-mediated phospho-MLC formation incubated for 24 hrs by densitometry. Format: cell-based.
Assay [7] has as its system MCF7. As to the kind of experiment: Inhibition of RhoGEF in human MCF7 cells derived mammospheres assessed as inhibition of 10% calf serum-induced RhoA-GTP formation by measuring relative RhoA-GTP level incubated for 24 hrs by densitometry (reference value: 1). The class given is cell-based.
For assay [8], the system named is MCF7. The assay can be described thus: Inhibition of RhoGEF in human MCF7 cells derived mammospheres assessed as inhibition of 10% calf serum-induced RhoA-GTP formation by measuring relative RhoA-GTP level at 30 uM incubated for 24 hrs by densitometry (reference value: 1). The class given is cell-based.
For assay [9], the system named is MCF7. As to the kind of experiment: Inhibition of RhoGEF in human MCF7 cells derived mammospheres assessed as inhibition of 10% calf serum-induced RhoA-GTP formation by measuring relative RhoA-GTP level at 10 uM incubated for 24 hrs by densitometry (reference value: 1). The class given is cell-based.
Assay [10] deals with MCF7. The assay can be described thus: Inhibition of RhoGEF in human MCF7 cells derived mammospheres assessed as inhibition of 10% calf serum-induced RhoA-GTP formation by measuring relative RhoA-GTP level at 5 uM incubated for 24 hrs by densitometry (reference value: 1). The class given is cell-based.
For assay [11], the system named is MCF7. The assay can be described thus: Inhibition of cell invasion of human MCF7 cells at 10 to 50 uM by Matrigel-coated transwell based assay. The class given is functional.
Assay [12] deals with MCF7. As to the kind of experiment: Inhibition of cell migration of human MCF7 cells at 10 to 50 uM. The class given is functional, cell-based.
In assay [13] the test system is MCF7. The assay can be described thus: Growth inhibition of human MCF7 cells at 5 to 50 uM. The class given is functional, cell-based.
The species entered for assay [14] is Mus musculus. The assay can be described thus: Inhibition of RhoGEF in mouse NIH/3T3 cells assessed as inhibition of 10% calf serum-induced Rac1-GTP formation by measuring relative Rac1-GTP level at 50 uM incubated for 24 hrs by densitometry (reference value: 1). The class given is cell-based.
The species named for assay [15] is Mus musculus. The assay can be described thus: Inhibition of RhoGEF in mouse NIH/3T3 cells assessed as inhibition of 10% calf serum-induced Cdc42-GTP formation by measuring relative Cdc42-GTP level at 50 uM incubated for 24 hrs by densitometry (reference value: 1). Format: cell-based.
For assay [16], the species on record is Mus musculus. As to the kind of experiment: Inhibition of RhoGEF in mouse NIH/3T3 cells assessed as inhibition of 10% calf serum-induced RhoA-GTP formation by measuring relative RhoA-GTP level at 50 uM incubated for 24 hrs by densitometry (reference value: 1). Format: cell-based.
For assay [17], the species on record is Mus musculus. As to the kind of experiment: Inhibition of RhoGEF in mouse NIH/3T3 cells assessed as inhibition of 10% calf serum-induced RhoA-GTP formation by measuring relative RhoA-GTP level at 30 uM incubated for 24 hrs by densitometry (reference value: 1). Format: cell-based.
The species named for assay [18] is Mus musculus. The assay can be described thus: Inhibition of RhoGEF in mouse NIH/3T3 cells assessed as inhibition of 10% calf serum-induced RhoA-GTP formation by measuring relative RhoA-GTP level at 10 uM incubated for 24 hrs by densitometry (reference value: 1). The class given is cell-based.
The target in assay [19] is T2, RhoGEF 1/Transforming protein RhoA (Homo sapiens) (UniProt P61586+Q92888). As to the kind of experiment: Binding affinity to human LARG (765 to 1138 residues) DH-PH module expressed in mouse NIH/3T3 cells assessed as reduction in LARG binding to human full length RhoA (1 to 193 residues) by measuring relative LARG binding level at 50 uM pull-down assay (reference value: 1 No unit). Format: cell-based.

Assay [20] has as its target T2, RhoGEF 1/Transforming protein RhoA (Homo sapiens). As to the kind of experiment: Binding affinity to human LARG (765 to 1138 residues) DH-PH module expressed in mouse NIH/3T3 cells assessed as reduction in LARG binding to human full length RhoA (1 to 193 residues) by measuring relative LARG binding level at 30 uM pull-down assay (reference value: 1 No unit). The class given is cell-based.

Assay [21] has the same target. As to the kind of experiment: Binding affinity to human LARG (765 to 1138 residues) DH-PH module expressed in mouse NIH/3T3 cells assessed as reduction in LARG binding to human full length RhoA (1 to 193 residues) by measuring relative LARG binding level at 10 uM pull-down assay (reference value: 1 No unit). Format: cell-based.
Assay [22] shares this target. The assay can be described thus: Binding affinity to human LARG (765 to 1138 residues) DH-PH module expressed in mouse NIH/3T3 cells assessed as reduction in LARG binding to human full length RhoA (1 to 193 residues) by measuring relative LARG binding level at 5 uM pull-down assay (reference value: 1 No unit). Format: cell-based.
The species entered for assay [23] is Mus musculus. The assay can be described thus: Inhibition of RhoGEF in mouse NIH/3T3 cells assessed as reduction in 10% calf serum-induced rhoA-mediated actin stress fiber formation at 10 uM by rhodamine-phalloidin staining based assay. Format: cell-based.
The species entered for assay [24] is Mus musculus. The assay can be described thus: Inhibition of RhoGEF in mouse NIH/3T3 cells assessed as inhibition of 10% calf serum-induced RhoA-GTP formation by measuring reduction in RhoA-GTP level at 30 uM incubated for 24 hrs by densitometry relative to control. The class given is cell-based.
For assay [25], the target named is T1, Rho guanine nucleotide exchange factor 12. The assay can be described thus: Inhibition of human LARG (765 to 1138 residues) RhoGEF binding to human full length RhoA (1 to 193 residues).

Molecules are shown by their SMILES. Active and inactive are the calls of the source. The calls are words filed in the database; no cut-off is given here.

T1 sequence (Q9NZN5 whole entry, the tested form may be a part): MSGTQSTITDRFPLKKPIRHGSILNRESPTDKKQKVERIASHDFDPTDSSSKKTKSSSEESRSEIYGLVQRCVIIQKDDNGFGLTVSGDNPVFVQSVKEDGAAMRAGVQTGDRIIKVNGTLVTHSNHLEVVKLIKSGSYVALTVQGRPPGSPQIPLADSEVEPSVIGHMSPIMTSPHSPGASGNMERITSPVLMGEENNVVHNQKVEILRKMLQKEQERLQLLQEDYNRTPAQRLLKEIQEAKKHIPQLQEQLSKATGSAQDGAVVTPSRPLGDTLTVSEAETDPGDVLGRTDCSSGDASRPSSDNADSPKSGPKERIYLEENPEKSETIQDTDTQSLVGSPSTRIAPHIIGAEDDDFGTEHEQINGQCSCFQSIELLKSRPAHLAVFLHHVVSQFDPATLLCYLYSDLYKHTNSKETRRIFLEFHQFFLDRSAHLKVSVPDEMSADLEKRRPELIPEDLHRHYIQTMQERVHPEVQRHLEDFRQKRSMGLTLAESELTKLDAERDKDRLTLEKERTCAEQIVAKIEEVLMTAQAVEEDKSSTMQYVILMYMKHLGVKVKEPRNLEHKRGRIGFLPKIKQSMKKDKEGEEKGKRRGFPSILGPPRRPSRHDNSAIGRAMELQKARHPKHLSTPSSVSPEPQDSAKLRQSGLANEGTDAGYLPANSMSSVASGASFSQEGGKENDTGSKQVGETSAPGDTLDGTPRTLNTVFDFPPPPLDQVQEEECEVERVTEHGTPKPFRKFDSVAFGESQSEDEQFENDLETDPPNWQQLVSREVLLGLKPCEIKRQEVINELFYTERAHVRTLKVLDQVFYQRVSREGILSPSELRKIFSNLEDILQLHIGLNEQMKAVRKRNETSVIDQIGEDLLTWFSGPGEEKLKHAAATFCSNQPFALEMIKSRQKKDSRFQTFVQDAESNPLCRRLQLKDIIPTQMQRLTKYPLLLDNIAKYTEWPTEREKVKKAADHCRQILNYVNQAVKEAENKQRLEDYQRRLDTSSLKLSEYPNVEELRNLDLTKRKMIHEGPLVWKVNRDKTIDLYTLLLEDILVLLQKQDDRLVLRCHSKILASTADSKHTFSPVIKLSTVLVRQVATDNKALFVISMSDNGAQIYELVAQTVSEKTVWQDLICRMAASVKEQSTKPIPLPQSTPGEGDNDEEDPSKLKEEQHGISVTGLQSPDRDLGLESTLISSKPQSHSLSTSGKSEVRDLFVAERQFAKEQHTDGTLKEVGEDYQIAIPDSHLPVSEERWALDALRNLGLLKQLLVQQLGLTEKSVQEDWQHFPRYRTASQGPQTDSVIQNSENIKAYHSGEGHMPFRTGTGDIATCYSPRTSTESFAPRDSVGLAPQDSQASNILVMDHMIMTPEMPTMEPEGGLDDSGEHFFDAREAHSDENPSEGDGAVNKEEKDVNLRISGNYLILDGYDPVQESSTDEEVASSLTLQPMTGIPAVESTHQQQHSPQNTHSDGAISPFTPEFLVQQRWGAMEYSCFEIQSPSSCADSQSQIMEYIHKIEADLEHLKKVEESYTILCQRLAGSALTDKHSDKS

`O=C1NN(c2ccccc2)C(=O)/C1=C/c1ccc(OCc2ccccc2)cc1`: the inhibition – broadly, how much of the control response was suppressed – in [1] amounted to 27.1%.
Regarding `O=C1/C(=C\c2ccccc2OCc2ccccc2)CNN1c1ccc(Br)cc1`, the inhibition in assay [1] is 7.34%.
Regarding `O=C1NN(c2ccccc2)C(=O)/C1=C\C1=NCc2ccccc21`, in [1], the inhibition is 6.57%.
Take `COc1cc(/C=C2/C(=O)NN(c3ccccc3)C2=O)cc(Br)c1OCCOc1ccc(C)cc1`: in [1], the inhibition was 13.8%.
As to `COc1cc(/C=C2/C(=O)NN(c3ccccc3)C2=O)ccc1O`, the inhibition in assay [1] worked out at 13%.
Turning to `O=C(O)C1Nc2c(Cl)cc(Cl)cc2C2C=CCC12` (centres undefined), the inhibition result in assay [2] and in assay [3] was “Dose-dependent effect” in each case.
For the compound `N[C@H](Cc1c[nH]c2ccccc12)C(=O)N/N=C/c1ccc2nccnc2c1`, the inhibition in assay [4] was 50%; in assay [5], 50%; in [6] it was “Dose-dependent effect”; in [7] it was “Dose-dependent effect”; in assay [24] it was 80%. For the same compound, the fold change (FC) was found to be 0.32 in assay [8]; 0.65 in assay [9]; 0.98 in [10]; 0.89 in assay [14]; 0.96 in assay [15]; 0.19 in assay [16]. The fold change (FC) in assay [17] stood at 0.38; in assay [18] it was 0.7; in [19], 0.15; in assay [20] it was 0.45; in assay [21], 0.63; in assay [22], 0.92. The inhibition result in assay [11], in assay [12] and in [23] was “Active” throughout. Besides, the “growth inhibition (GI)” value in [13] is “Active”. Also, in assay [25], the IC50 (in general, the concentration at which inhibition is half-maximal) was determined as 10 µM.
